# Measurements: patent US8048901B2, “1,3-substituted cycloalkyl derivatives having acidic, mostly heterocyclic groups, processes for their preparation and their use as pharmaceuticals” (Aventis Pharma Deutschland GmbH, priority 2003, dated 2011)
# Molecular target: T1, human PPARalpha (Homo sapiens, UniProt Q07869)
# T1 construct: human PPARalpha receptor (amino acids S167-Y468); expressed in transfected cells; host or cells: HEK cells (human embryo kidney), stably transfected with a pcDNA3-based plasmid
# T1 sequence (Q07869 167-468): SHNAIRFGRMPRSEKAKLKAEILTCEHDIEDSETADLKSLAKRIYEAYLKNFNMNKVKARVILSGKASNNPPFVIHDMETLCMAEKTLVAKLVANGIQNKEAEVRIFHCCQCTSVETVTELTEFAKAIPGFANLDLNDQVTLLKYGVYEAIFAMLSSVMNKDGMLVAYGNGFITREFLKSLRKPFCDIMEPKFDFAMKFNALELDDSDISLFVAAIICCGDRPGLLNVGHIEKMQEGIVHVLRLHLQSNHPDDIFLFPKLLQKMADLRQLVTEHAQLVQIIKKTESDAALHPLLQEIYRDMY
# Assay: Cellular PPARalpha assay (stably transfected HEK PPARalpha reporter cell line, luciferase)
# Assay type: cell-based
# Details: GR-GAL4-humanPPARalpha-LBD, luciferase readout
# Procedure: Determination of EC50 Values of PPAR Agonists in the Cellular PPARalpha Assay
# The potency of substances which bind to human PPARalpha and activate in an agonistic manner is analyzed using a stably transfected HEK cell line (HEK=human embryo kidney) which is referred to here as PPARalpha reporter cell line. It contains two genetic elements, a luciferase reporter element (pdeltaM-GAL4-Luc-Zeo) and a PPARalpha fusion protein (GR-GAL4-humanPPARalpha-LBD) which mediates expression of the luciferase reporter element depending on a PPARalpha ligand. The stably and constitutively expressed fusion protein GR-GAL4-humanPPARalpha-LBD binds in the cell nucleus of the PPARalpha reporter cell line via the GAL4 protein portion to the GAL4 DNA binding motifs 5′-upstream of the luciferase reporter element which is integrated in the genome of the cell line. There is only little expression of the luciferase reporter gene without addition of a PPARalpha ligand if fatty acid-depleted fetal calf serum (cs-FCS) is used in the assay. PPARalpha ligands bind and activate the PPARalpha fusion protein and thereby bring about expression of the luciferase reporter gene. The luciferase which is formed can be detected by means of chemiluminescence via an appropriate substrate.
# The PPARalpha reporter cell line was prepared in 2 stages. Firstly, the luciferase reporter element was constructed and stably transfected into HEK cells. For this purpose, five binding sites of the yeast transcription factor GAL4 (each 5′-CGGAGTACTGTCCTCCGAG-3′) (SEQ ID No. 1) were cloned in 5′-upstream of a 68 bp-long minimal MMTV promoter (Genbank Accession # V01175). The minimal MMTV promoter section contains a CCAAT box and a TATA element in order to enable efficient transcription by RNA polymerase II. The cloning and sequencing of the GAL4-MMTV construct took place in analogy to the description of Sambrook J. et. al. (Molecular cloning, Cold Spring Harbor Laboratory Press, 1989). Then the complete Photinus pyralis gene (Genbank Accession # M15077) was cloned in 3′-downstream of the GAL4-MMTV element. After sequencing, the luceriferase reporter element consisting of five GAL4 binding sites, MMTV promoter and luciferase gene was recloned into a plasmid which confers zeocin resistance in order to obtain the plasmid pdeltaM-GAL4-Luc-Zeo. This vector was transfected into HEK cells in accordance with the statements in Ausubel, F. M. et al. (Current protocols in molecular biology, Vol. 1-3, John Wiley & Sons, Inc., 1995).
# In a second step, the PPARalpha fusion protein (GR-GAL4-humanPPARalpha-LBD) was introduced into the stable cell clone described. For this purpose, initially the cDNA coding for the N-terminal 76 amino acids of the glucocorticoid receptor (Genbank Accession # P04150) was linked to the cDNA section coding for amino acids 1-147 of the yeast transcription factor GAL4 (Genbank Accession # P04386). The cDNA of the ligand-binding domain of the human PPARalpha receptor (amino acids S167-Y468; Genbank Accession # S74349) was cloned in at the 3′-end of this GR-GAL4 construct. The fusion construct prepared in this way (GR-GAL4-humanPPARalpha-LBD) was recloned into the plasmid pcDNA3 (from Invitrogen) in order to enable constitutive expression therein by the cytomegalovirus promoter. This plasmid was linearized with a restriction endonuclease and stably transfected into the previously described cell clone containing the luciferase reporter element. The finished PPARalpha reporter cell line which contains a luciferase reporter element and constitutively expresses the PPARalpha fusion protein (GR-GAL4-human PPARalpha-LBD) was isolated by selection with zeocin (0.5 mg/ml) and G418 (0.5 mg/ml).
# The activity of PPARalpha agonists is determined in a 3-day assay which is described below: […]
row,Structure (SMILES),EC50
1,"Cc1cccc(-c2nc(CO[C@H]3CCC[C@@H](OCCCNS(=O)(=O)C(F)(F)F)C3)c(C)o2)c1 [Example II, (1R,3S)—C,C,C-Trifluoro-N-{3-[3-(5-methyl-2-m-tolyloxazol-4-ylmethoxy)cyclohexyloxy]propyl}methanesulfonamide]",331 nM
2,"Cc1cccc(-c2nc(CO[C@H]3CCC[C@@H](OCCOc4cccc(C)c4C(=O)O)C3)c(C)o2)c1 [Example XIV, (1R,3S)-2-Methyl-6-{2-[3-(5-methyl-2-m-tolyloxazol-4-ylmethoxy)cyclohexyloxy]ethoxy}benzoic acid]",106 nM
3,"Cc1cccc(-c2nc(CO[C@H]3CCC[C@@H](OCCOc4cccc(C)c4[N+](=O)[O-])C3)c(C)o2)c1 [Example XXI, (1S,3R)-5-Methyl-4-{3-[2-(3-methyl-2-nitrophenoxy)ethoxy]cyclohexyloxymethyl}-2-m-tolyloxazole]",530 nM
4,"Cc1cccc(-c2nc(CO[C@H]3CCC[C@@H](OCCOc4cc(C(F)(F)F)sc4C(=O)O)C3)c(C)o2)c1 [Example XXIII, (1R,3S)-3-{2-[3-(5-Methyl-2-m-tolyloxazol-4-ylmethoxy)cyclohexyloxy]ethoxy}-5-trifluoromethylthiophene-2-carboxylic acid]",222 nM

# Next, values leading:
row,EC50,Structure (SMILES)
1,24 nM,"Cc1ccc(-c2nc(CO[C@@H]3CCC[C@H](Cn4c(C(=O)O)cc5ccccc54)C3)c(C)o2)cc1 (racemic) [Example XXVI, 1-[(1S,3R)/(1R,3S)-3-(5-Methyl-2-p-tolyloxazol-4-ylmethoxy)cyclohexylmethyl]-1H-indole-2-carboxylic acid]"
2,469 nM,"CCc1ccc2c(c1)cc(C(=O)O)n2CCO[C@@H]1CCC[C@H](OCc2nc(-c3cccc(C)c3)oc2C)C1 [Example VII, (1R,3S)-5-Ethyl-1-{2-[3-(5-methyl-2-m-tolyloxazol-4-ylmethoxy)cyclohexyloxy]ethyl}-1H-indole-2-carboxylic acid]"
3,361 nM,"COc1ccc2cc(C(=O)O)n(CCO[C@@H]3CCC[C@H](OCc4nc(-c5cccc(C)c5)oc4C)C3)c2c1 [Example XI, (1R,3S)-6-Methoxy-1-{2-[3-(5-methyl-2-m-tolyloxazol-4-ylmethoxy)cyclohexyloxy]ethyl}-1H-indole-2-carboxylic acid]"
4,519 nM,"Cc1cccc(-c2nc(CO[C@H]3CCC[C@@H](OCCOc4ccccc4C(=O)O)C3)c(C)o2)c1 [Example XV, (1R,3S)-2-{2-[3-(5-Methyl-2-m-tolyloxazol-4-ylmethoxy)cyclohexyloxy]-ethoxy}benzoic acid]"
